The source made the active and inactive calls. The calls are words filed in the database; no cut-off is given here.
How the values were obtained:
L1210 [1] = experiment: Antitumor activity against mouse L1210 cells allografted in BDF1 mouse assessed as host survival at 8 mg/kg, ip qd for 3 days measured on day 60 relative to control; format: functional, organism-based; parameters: dose 8 mg/kg
L1210 [2] = experiment: Antitumor activity against mouse L1210 cells allografted in BDF1 mouse assessed as increase in life span at 8 mg/kg, ip qd for 3 days relative to control; format: functional; details: route intraperitoneal
L1210 [3] = experiment: Antitumor activity against mouse L1210 cells allografted in BDF1 mouse assessed as mean survival days at 8 mg/kg, ip qd for 3 days; format: functional; details: route intraperitoneal
L1210 [4] = experiment: Antitumor activity against mouse L1210 cells allografted in BDF1 mouse assessed as mean survival days at 8 mg/kg, ip qd for 3 days relative to control; format: functional; details: route intraperitoneal
L1210 [5] = experiment: Antitumor activity against mouse L1210 cells allografted in BDF1 mouse assessed as increase in life span at 10 mg/kg, ip qd for 3 days relative to control; format: functional; details: route intraperitoneal
L1210 [6] = experiment: Antitumor activity against mouse L1210 cells allografted in BDF1 mouse assessed as mean survival days at 10 mg/kg, ip qd for 3 days relative to control; format: functional; details: route intraperitoneal
L1210 [7] = experiment: Antitumor activity against mouse L1210 cells allografted in BDF1 mouse assessed as mean survival days at 10 mg/kg, ip qd for 3 days; format: functional; details: route intraperitoneal
L1210 [8] = experiment: Antitumor activity against mouse L1210 cells allografted in BDF1 mouse assessed as mean survival days at 20 mg/kg, ip qd for 3 days relative to control; format: functional; details: route intraperitoneal
L1210 [9] = experiment: Antitumor activity against mouse L1210 cells allografted in BDF1 mouse assessed as mean survival days at 20 mg/kg, ip qd for 3 days; format: functional; details: route intraperitoneal
Mus musculus [10] = experiment: Toxicity in mouse L1210 cells allografted BDF1 mouse assessed as atrophic liver at 20 mg/kg, ip qd for 3 days; format: organism-based; parameters: dose 20 mg/kg, route intraperitoneal; details: in vivo, 72 h
L1210 [11] = experiment: Antitumor activity against mouse L1210 cells allografted in BDF1 mouse assessed as increase in life span at 20 mg/kg, ip qd for 3 days relative to control; format: functional; details: route intraperitoneal
Mus musculus [12] = experiment: Toxicity in mouse L1210 cells allografted BDF1 mouse assessed as congestive liver at 40 mg/kg, ip qd for 3 days; format: organism-based; parameters: dose 40 mg/kg, route intraperitoneal; details: in vivo, 72 h
Mus musculus [13] = experiment: Toxicity in mouse L1210 cells allografted BDF1 mouse assessed as atrophic spleen at 40 mg/kg, ip qd for 3 days; format: organism-based; parameters: dose 40 mg/kg, route intraperitoneal; details: in vivo, 72 h

Structure (SMILES)	Activity (L1210 [1])	Activity (L1210 [2])	Survival (L1210 [3])	other results
O=NN(CCCl)C(=O)N[C@@H]1O[C@H](CO)[C@@H](O)[C@H](O)[C@H]1O	Active	512.2%	60 days	
O=NN(CCCl)C(=O)N[C@@H]1O[C@H](CO)[C@@H](O)[C@H](O)[C@@H]1O	inactive	103.3%	18.3 days	
O=NN(CCCl)C(=O)N[C@@H]1O[C@H](CO)[C@@H](O[C@@H]2O[C@H](CO)[C@@H](O)[C@H](O)[C@H]2O)[C@H](O)[C@H]1O		483.3%	42 days	T/C (L1210 [4]): 7.2
O=NN(CCCl)C(=O)N[C@@H]1OC[C@@H](O)[C@H](O)[C@H]1O	Active	445.5%	60 days	T/C (L1210 [4]): 11
O=NN(CCCl)C(=O)N[C@@H]1O[C@H](CO)[C@@H](O[C@@H]2O[C@H](CO)[C@H](O)[C@H](O)[C@H]2O)[C@H](O)[C@H]1O				Activity (L1210 [5]): 384.5%; T/C (L1210 [6]): 9.7; Survival (L1210 [7]): 47 days
O=NN(CCCl)C(=O)N[C@@H]1O[C@H](CO)[C@H](O)[C@H](O)[C@H]1O		405.4%	47 days	
O=NN(CCCl)C(=O)N[C@@H]1O[C@H](CO)[C@@H](O[C@H]2O[C@H](CO)[C@@H](O)[C@H](O)[C@H]2O)[C@H](O)[C@H]1O				T/C (L1210 [8]): 9; Survival (L1210 [9]): 45.3 days; Activity (Mus musculus [10]): Toxic; Activity (L1210 [11]): 403.3%; Activity (Mus musculus [12]): Toxic; Activity (Mus musculus [13]): Toxic

From ChEMBL document CHEMBL3227920, “Synthesis and activities of antitumor agents” (J Med Chem, 1979)
